Source: patent publication US12655145B2, “P2X3 modulators” (GlaxoSmithKline Intellectual Property (No. 3) Limited, priority 2020, dated 2026)
pIC50: −log10 of the molar value.

target: T1, P2X3 (Homo sapiens, UniProt P56373); assay: P2X3 Antagonist Assay (FLIPR calcium, Fluo-8, HEK293 cells transfected with human ion channel cDNAs, αβ-meATP stimulation); type: cell-based; conditions: HEK293, @ 1 μM, antagonist mode, αβ-meATP 3 μM, read-out: P2X3 IC50 column, given as % @ 1 μM
T1 construct: expressed in transfected cells; host or cells: HEK293
T1 sequence (P56373 1-397): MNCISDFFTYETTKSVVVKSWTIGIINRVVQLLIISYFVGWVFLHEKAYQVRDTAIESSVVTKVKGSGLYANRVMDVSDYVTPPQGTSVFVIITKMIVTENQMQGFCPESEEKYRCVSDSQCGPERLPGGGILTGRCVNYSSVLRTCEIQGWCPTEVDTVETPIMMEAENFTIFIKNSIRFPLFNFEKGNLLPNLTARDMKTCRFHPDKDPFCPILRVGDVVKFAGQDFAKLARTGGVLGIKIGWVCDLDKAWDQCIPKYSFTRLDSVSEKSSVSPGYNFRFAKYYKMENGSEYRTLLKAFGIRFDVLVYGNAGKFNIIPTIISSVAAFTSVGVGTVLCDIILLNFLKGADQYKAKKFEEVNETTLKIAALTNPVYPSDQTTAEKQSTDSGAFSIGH
Description: Example 59: P2X3 Antagonist Assay
HEK293 were transiently or stably transfected with human ion channel cDNAs as indicated in section 1. Stable transfectants were selected by coexpression with the antibiotic-resistance gene(s) incorporated into the expression plasmid(s). Selection pressure was maintained by including selection antibiotics in the culture medium. HEK293 cells were cultured in Dulbecco's Modified Eagle Medium/Nutrient Mixture F-12 (D-MEM/F-12) supplemented with 10% fetal bovine serum, 100 U/mL penicillin G sodium, 100 J·Lg/mL streptomycin sulfate and appropriate selection antibiotics.
The effect of each test article to act as an antagonist was evaluated. Each test article was evaluated at eight (8) concentrations (0.001, 0.003, 0.01, 0.03, 0.1, 0.3, 1 and 3 μM, n=3) with 4 replicates for each concentration. Experiments were performed with the FLIPR calcium sensitive dye kit (Fluo-8 dye, AAT, Bioquest) according to the manufacturer's instructions. • Dye-loading: Growth media will be removed and add 20 μL of Mg^++-free HBPS containing Fluo-8 for 30 min at 37° C. • Preincubation (FLIPR step 1): Adding 5× (5 μL) test, vehicle, or control article solutions in Mg^+-free HBPS to each well for 20 minutes at room temperature, protected from light. • Stimulation (FLIPR step 2): After pre-incubation, cells will be stimulated with 6× (5 μL) αβ-meATP at final concentration of 3 μM prepared in Mg^++-free HBPS. • Non-Specific Calcium Influx (FLIPR step 3): 5 minutes after stimulation solution addition, non-specific calcium influx will be activated by adding 7×(5 μL) ionomycin at a final concentration of 5 μM. Fluorescence will be recorded continuously during FLIPR steps 2 and 3. • Positive Control Antagonist: PPADS (1 mM).
Data acquisition was performed via the FLIPRControl software that is supplied with the FLIPR System (MDS-AT) and data was analyzed using Microsoft Excel2003 (Microsoft Corp., Redmond, WA).

inhibition at 1 µM [%]	Compound
10	CNC(=O)c1cc(F)c(-c2[nH]c3cc(C)ccc3c2C[C@H]2CN(C(=O)OC)CCO2)c(F)c1 [Compound A24, methyl (S)-2-((2-(2,6-difluoro-4-(methylcarbamoyl)phenyl)6-methyl-1H-indol-3-yl)methyl)morpholine-4-carboxylate]

same assay, conditions: antagonist mode, αβ-meATP 3 μM

pIC50	Compound
> 7.00	CNC(=O)c1ccc(-c2nc3cc(Cl)ccn3c2C[C@H]2CN(C(=O)OC)CCO2)c(C)c1 [Compound A7, methyl (S)-2-((7-chloro-2-(2-methyl-4-(methylcarbamoyl)phenyl)-imidazo[1,2-a]pyridin-3-yl)methyl)morpholine-4-carboxylate]
> 7.00	CNC(=O)c1ccc(-c2nc3cc(C)ccn3c2C[C@H]2CN(C(=O)OC)CCO2)c(Cl)c1 [Compound A8, methyl (S)-2-((2-(2-chloro-4-(methylcarbamoyl)phenyl)-7-methyl-imidazo[1,2-a]pyridin-3-yl)methyl)morpholine-4-carboxylate]
> 7.00	CNC(=O)c1ccc(-c2nc3cc(Cl)ccn3c2C[C@H]2CN(C(=O)OC)CCO2)c(Cl)c1 [Compound A9, methyl (S)-2-((2-(2-chloro-4-(methylcarbamoyl)phenyl)-7-chloro-imidazo[1,2-a]pyridin-3-yl)methyl)morpholine-4-carboxylate]
> 7.00	CNC(=O)c1ccc(-c2nc3cc(C)ccn3c2C[C@H]2CN(C(=O)OC)CCO2)c(F)c1 [Compound A10, methyl (S)-2-((2-(2-fluoro-4-(methylcarbamoyl)phenyl)-7-methylimidazo[1,2-a]pyridin-3-yl)methyl)morpholine-4-carboxylate]
> 7.00	CNC(=O)c1ccc(-c2nc3cc(Cl)ccn3c2C[C@H]2CN(C(=O)OC)CCO2)c(F)c1 [Compound A11, methyl (S)-2-((2-(2-fluoro-4-(methylcarbamoyl)phenyl)-7-chloroimidazo[1,2-a]pyridin-3-yl)methyl)morpholine-4-carboxylate]
> 7.00	CNC(=O)c1cc(C)c(-c2nc3cc(C)ccn3c2C[C@H]2CN(C(=O)OC)CCO2)cc1F [Compound A12, methyl (S)-2-((2-(5-fluoro-2-methyl-4-(methylcarbamoyl)phenyl)-7-methylimidazo[1,2-a]pyridin-3-yl)methyl)morpholine-4-carboxylate]
> 7.00	CNC(=O)c1cc(C)c(-c2nc3cc(Cl)ccn3c2C[C@H]2CN(C(=O)OC)CCO2)cc1F [Compound A13, methyl (S)-2-((7-chloro-2-(5-fluoro-2-methyl-4-(methylcarbamoyl)phenyl)imidazo[1,2-a]pyridin-3-yl)methyl)morpholine-4-carboxylate]
> 7.00	CNC(=O)c1cc(F)c(-c2nc3cc(C)ccn3c2CC2CCN(C(=O)OC)CC2)c(F)c1 [Compound A20, methyl 4-((2-(2,6-difluoro-4-(methylcarbamoyl)phenyl)-7-methylimidazo[1,2-a]pyridin-3-yl)methyl)piperidine-1-carboxylate]
6.00 to 7.00	CNC(=O)c1cc(F)c(-c2cc3cc(C)ccc3n2C[C@H]2CN(C(=O)OC)CCO2)c(F)c1 [Compound A23, methyl (S)-2-((2-(2,6-difluoro-4-(methylcarbamoyl)phenyl)-5-methyl-1H-indol-1-yl)methyl)morpholine-4-carboxylate]
< 6.00	CNC(=O)c1cc(F)c(-c2cc3cc(C)cnc3n2C[C@H]2CN(C(=O)OC)CCO2)c(F)c1 [Compound A25, methyl (S)-2-((2-(2,6-difluoro-4-(methylcarbamoyl)phenyl)-5-methyl-1H-pyrrolo[2,3-b]pyridin-1-yl)methyl)morpholine-4-carboxylate]
< 6.00	CNC(=O)c1cc(F)c(-c2[nH]c3cc(C)cnc3c2C[C@H]2CN(C(=O)OC)CCO2)c(F)c1 [Compound A26, methyl (S)-2-((2-(2,6-difluoro-4-(methylcarbamoyl)phenyl)-6-methyl-1H-pyrrolo[3,2-b]pyridin-3-yl)methyl)morpholine-4-carboxylate]
